# Measurements published in patent US12180194B2, “Multi-aziridine compound” (Covestro (Netherlands) B.V., priority 2018, dated 2024).
# System: Rtkn-GFP
# Test: ToxTracker genotoxicity assay, Rtkn-GFP reporter induction
# Conditions: GFP induction vs vehicle at 10% cytotoxicity; 3 h exposure with S9, 24 h recovery
row,SMILES,"Genotoxicity test, With S9 rat liver extract, Rtkn, 10"
1,CCCCCCCCCC(=O)OCC(CN1CC1C)OC(=O)NC1CCC(CC2CCC(NC(=O)OC(COC(=O)CCCCCCCCC)CN3CC3C)CC2)CC1 (stereo not shown) [Ex. 23],1.0 fold
2,CCCCCCCCCC(=O)OCC(CN1CC1C)OC(=O)NC(C)(C)c1cccc(C(C)(C)NC(=O)OC(COC(=O)CCCCCCCCC)CN2CC2C)c1 (stereo not shown) [Ex. 22],1.1 fold
3,CCCCOCC(CN1CC1C)OC(=O)NCCCCCCN1C(=O)N(CCCCCCNC(=O)OC(COCCCC)CN2CC2C)C1=O (stereo not shown) [Ex. 13],1.4 fold
4,CC(CN1CC1C)OC(=O)NCCCCCC/N=c1\oc(=O)n(CCCCCCNC(=O)OC(C)CN2CC2C)c(=O)n1CCCCCCNC(=O)OC(C)CN1CC1C (stereo not shown) [Ex. 2],1.1 fold
5,"CCCCOCC(CN1CC1C)OC(=O)NCCCCCCNC(=O)OC(COCCCC)CN1CC1C (stereo not shown) [Comp. Ex. 10, reference compound]",1.5 fold
6,CC(CN1CC1C)OC(=O)NCCCCCCn1c(=O)n(CCCCCCNC(=O)OC(C)CN2CC2C)c(=O)n(CCCCCCNC(=O)OC(C)CN2CC2C)c1=O (stereo not shown) [Ex. 1],1.2 fold

# Same assay, conditions: GFP induction vs vehicle at 10% cytotoxicity; 24 h exposure, no S9
row,SMILES,"Genotoxicity test, Without S9 rat liver extract, Rtkn, 10"
1,CCCCCCCCCC(=O)OCC(CN1CC1C)OC(=O)NC1CCC(CC2CCC(NC(=O)OC(COC(=O)CCCCCCCCC)CN3CC3C)CC2)CC1 (stereo not shown) [Ex. 23],1.1 fold
2,CCCCCCCCCC(=O)OCC(CN1CC1C)OC(=O)NC(C)(C)c1cccc(C(C)(C)NC(=O)OC(COC(=O)CCCCCCCCC)CN2CC2C)c1 (stereo not shown) [Ex. 22],1.0 fold
3,CCCCOCC(CN1CC1C)OC(=O)NCCCCCCN1C(=O)N(CCCCCCNC(=O)OC(COCCCC)CN2CC2C)C1=O (stereo not shown) [Ex. 13],1.1 fold
4,CC(CN1CC1C)OC(=O)NCCCCCC/N=c1\oc(=O)n(CCCCCCNC(=O)OC(C)CN2CC2C)c(=O)n1CCCCCCNC(=O)OC(C)CN1CC1C (stereo not shown) [Ex. 2],1.1 fold
5,"CCCCOCC(CN1CC1C)OC(=O)NCCCCCCNC(=O)OC(COCCCC)CN1CC1C (stereo not shown) [Comp. Ex. 10, reference compound]",1.2 fold
6,CC(CN1CC1C)OC(=O)NCCCCCCn1c(=O)n(CCCCCCNC(=O)OC(C)CN2CC2C)c(=O)n(CCCCCCNC(=O)OC(C)CN2CC2C)c1=O (stereo not shown) [Ex. 1],1.2 fold

# Same assay, conditions: GFP induction vs vehicle at 25% cytotoxicity; 3 h exposure with S9, 24 h recovery
row,SMILES,"Genotoxicity test, With S9 rat liver extract, Rtkn, 25"
1,CCCCCCCCCC(=O)OCC(CN1CC1C)OC(=O)NC1CCC(CC2CCC(NC(=O)OC(COC(=O)CCCCCCCCC)CN3CC3C)CC2)CC1 (stereo not shown) [Ex. 23],1.2 fold
2,CCCCCCCCCC(=O)OCC(CN1CC1C)OC(=O)NC(C)(C)c1cccc(C(C)(C)NC(=O)OC(COC(=O)CCCCCCCCC)CN2CC2C)c1 (stereo not shown) [Ex. 22],1.1 fold
3,CCCCOCC(CN1CC1C)OC(=O)NCCCCCCN1C(=O)N(CCCCCCNC(=O)OC(COCCCC)CN2CC2C)C1=O (stereo not shown) [Ex. 13],1.6 fold
4,"CCCCOCC(CN1CC1C)OC(=O)NCCCCCCNC(=O)OC(COCCCC)CN1CC1C (stereo not shown) [Comp. Ex. 10, reference compound]",2.3 fold
5,CC(CN1CC1C)OC(=O)NCCCCCCn1c(=O)n(CCCCCCNC(=O)OC(C)CN2CC2C)c(=O)n(CCCCCCNC(=O)OC(C)CN2CC2C)c1=O (stereo not shown) [Ex. 1],1.1 fold

# Same assay, conditions: GFP induction vs vehicle at 25% cytotoxicity; 24 h exposure, no S9
row,SMILES,"Genotoxicity test, Without S9 rat liver extract, Rtkn, 25"
1,CCCCCCCCCC(=O)OCC(CN1CC1C)OC(=O)NC1CCC(CC2CCC(NC(=O)OC(COC(=O)CCCCCCCCC)CN3CC3C)CC2)CC1 (stereo not shown) [Ex. 23],1.2 fold
2,CCCCCCCCCC(=O)OCC(CN1CC1C)OC(=O)NC(C)(C)c1cccc(C(C)(C)NC(=O)OC(COC(=O)CCCCCCCCC)CN2CC2C)c1 (stereo not shown) [Ex. 22],1.0 fold
3,CCCCOCC(CN1CC1C)OC(=O)NCCCCCCN1C(=O)N(CCCCCCNC(=O)OC(COCCCC)CN2CC2C)C1=O (stereo not shown) [Ex. 13],1.2 fold
4,CC(CN1CC1C)OC(=O)NCCCCCC/N=c1\oc(=O)n(CCCCCCNC(=O)OC(C)CN2CC2C)c(=O)n1CCCCCCNC(=O)OC(C)CN1CC1C (stereo not shown) [Ex. 2],1.0 fold
5,"CCCCOCC(CN1CC1C)OC(=O)NCCCCCCNC(=O)OC(COCCCC)CN1CC1C (stereo not shown) [Comp. Ex. 10, reference compound]",1.9 fold
6,CC(CN1CC1C)OC(=O)NCCCCCCn1c(=O)n(CCCCCCNC(=O)OC(C)CN2CC2C)c(=O)n(CCCCCCNC(=O)OC(C)CN2CC2C)c1=O (stereo not shown) [Ex. 1],1.2 fold

# Same assay, conditions: GFP induction vs vehicle at 50% cytotoxicity; 3 h exposure with S9, 24 h recovery
row,SMILES,"Genotoxicity test, With S9 rat liver extract, Rtkn, 50"
1,CCCCCCCCCC(=O)OCC(CN1CC1C)OC(=O)NC1CCC(CC2CCC(NC(=O)OC(COC(=O)CCCCCCCCC)CN3CC3C)CC2)CC1 (stereo not shown) [Ex. 23],1.2 fold
2,CCCCCCCCCC(=O)OCC(CN1CC1C)OC(=O)NC(C)(C)c1cccc(C(C)(C)NC(=O)OC(COC(=O)CCCCCCCCC)CN2CC2C)c1 (stereo not shown) [Ex. 22],1.0 fold
3,"CCCCOCC(CN1CC1C)OC(=O)NCCCCCCNC(=O)OC(COCCCC)CN1CC1C (stereo not shown) [Comp. Ex. 10, reference compound]",2.2 fold
4,CC(CN1CC1C)OC(=O)NCCCCCCn1c(=O)n(CCCCCCNC(=O)OC(C)CN2CC2C)c(=O)n(CCCCCCNC(=O)OC(C)CN2CC2C)c1=O (stereo not shown) [Ex. 1],0.9 fold

# Same assay, conditions: GFP induction vs vehicle at 50% cytotoxicity; 24 h exposure, no S9
row,SMILES,"Genotoxicity test, Without S9 rat liver extract, Rtkn, 50"
1,CCCCCCCCCC(=O)OCC(CN1CC1C)OC(=O)NC1CCC(CC2CCC(NC(=O)OC(COC(=O)CCCCCCCCC)CN3CC3C)CC2)CC1 (stereo not shown) [Ex. 23],1.1 fold
2,CCCCCCCCCC(=O)OCC(CN1CC1C)OC(=O)NC(C)(C)c1cccc(C(C)(C)NC(=O)OC(COC(=O)CCCCCCCCC)CN2CC2C)c1 (stereo not shown) [Ex. 22],1.0 fold
3,CC(CN1CC1C)OC(=O)NCCCCCC/N=c1\oc(=O)n(CCCCCCNC(=O)OC(C)CN2CC2C)c(=O)n1CCCCCCNC(=O)OC(C)CN1CC1C (stereo not shown) [Ex. 2],0.9 fold
4,"CCCCOCC(CN1CC1C)OC(=O)NCCCCCCNC(=O)OC(COCCCC)CN1CC1C (stereo not shown) [Comp. Ex. 10, reference compound]",1.9 fold
5,CC(CN1CC1C)OC(=O)NCCCCCCn1c(=O)n(CCCCCCNC(=O)OC(C)CN2CC2C)c(=O)n(CCCCCCNC(=O)OC(C)CN2CC2C)c1=O (stereo not shown) [Ex. 1],1.4 fold

# System: Bscl2-GFP
# Test: ToxTracker genotoxicity assay, Bscl2-GFP reporter induction
# Conditions: GFP induction vs vehicle at 10% cytotoxicity; 3 h exposure with S9, 24 h recovery
row,SMILES,"Genotoxicity test, With S9 rat liver extract, Bscl 2, 10"
1,CCCCCCCCCC(=O)OCC(CN1CC1C)OC(=O)NC1CCC(CC2CCC(NC(=O)OC(COC(=O)CCCCCCCCC)CN3CC3C)CC2)CC1 (stereo not shown) [Ex. 23],1.1 fold
2,CCCCCCCCCC(=O)OCC(CN1CC1C)OC(=O)NC(C)(C)c1cccc(C(C)(C)NC(=O)OC(COC(=O)CCCCCCCCC)CN2CC2C)c1 (stereo not shown) [Ex. 22],1.2 fold
3,CCCCOCC(CN1CC1C)OC(=O)NCCCCCCN1C(=O)N(CCCCCCNC(=O)OC(COCCCC)CN2CC2C)C1=O (stereo not shown) [Ex. 13],1.2 fold
4,CC(CN1CC1C)OC(=O)NCCCCCC/N=c1\oc(=O)n(CCCCCCNC(=O)OC(C)CN2CC2C)c(=O)n1CCCCCCNC(=O)OC(C)CN1CC1C (stereo not shown) [Ex. 2],1.0 fold
5,"CCCCOCC(CN1CC1C)OC(=O)NCCCCCCNC(=O)OC(COCCCC)CN1CC1C (stereo not shown) [Comp. Ex. 10, reference compound]",1.3 fold

# Same assay, conditions: GFP induction vs vehicle at 10% cytotoxicity; 24 h exposure, no S9
row,SMILES,"Genotoxicity test, Without S9 rat liver extract, Bscl 2, 10"
1,CCCCCCCCCC(=O)OCC(CN1CC1C)OC(=O)NC1CCC(CC2CCC(NC(=O)OC(COC(=O)CCCCCCCCC)CN3CC3C)CC2)CC1 (stereo not shown) [Ex. 23],1.1 fold
2,CCCCCCCCCC(=O)OCC(CN1CC1C)OC(=O)NC(C)(C)c1cccc(C(C)(C)NC(=O)OC(COC(=O)CCCCCCCCC)CN2CC2C)c1 (stereo not shown) [Ex. 22],1.0 fold
3,CCCCOCC(CN1CC1C)OC(=O)NCCCCCCN1C(=O)N(CCCCCCNC(=O)OC(COCCCC)CN2CC2C)C1=O (stereo not shown) [Ex. 13],1.1 fold
4,CC(CN1CC1C)OC(=O)NCCCCCC/N=c1\oc(=O)n(CCCCCCNC(=O)OC(C)CN2CC2C)c(=O)n1CCCCCCNC(=O)OC(C)CN1CC1C (stereo not shown) [Ex. 2],1.1 fold
5,"CCCCOCC(CN1CC1C)OC(=O)NCCCCCCNC(=O)OC(COCCCC)CN1CC1C (stereo not shown) [Comp. Ex. 10, reference compound]",1.3 fold

# Same assay, conditions: GFP induction vs vehicle at 25% cytotoxicity; 3 h exposure with S9, 24 h recovery
row,SMILES,"Genotoxicity test, With S9 rat liver extract, Bscl 2, 25"
1,CCCCCCCCCC(=O)OCC(CN1CC1C)OC(=O)NC1CCC(CC2CCC(NC(=O)OC(COC(=O)CCCCCCCCC)CN3CC3C)CC2)CC1 (stereo not shown) [Ex. 23],1.1 fold
2,CCCCCCCCCC(=O)OCC(CN1CC1C)OC(=O)NC(C)(C)c1cccc(C(C)(C)NC(=O)OC(COC(=O)CCCCCCCCC)CN2CC2C)c1 (stereo not shown) [Ex. 22],1.2 fold
3,CCCCOCC(CN1CC1C)OC(=O)NCCCCCCN1C(=O)N(CCCCCCNC(=O)OC(COCCCC)CN2CC2C)C1=O (stereo not shown) [Ex. 13],1.2 fold
4,"CCCCOCC(CN1CC1C)OC(=O)NCCCCCCNC(=O)OC(COCCCC)CN1CC1C (stereo not shown) [Comp. Ex. 10, reference compound]",1.5 fold

# Same assay, conditions: GFP induction vs vehicle at 25% cytotoxicity; 24 h exposure, no S9
row,SMILES,"Genotoxicity test, Without S9 rat liver extract, Bscl 2, 25"
1,CCCCCCCCCC(=O)OCC(CN1CC1C)OC(=O)NC1CCC(CC2CCC(NC(=O)OC(COC(=O)CCCCCCCCC)CN3CC3C)CC2)CC1 (stereo not shown) [Ex. 23],1.2 fold
2,CCCCCCCCCC(=O)OCC(CN1CC1C)OC(=O)NC(C)(C)c1cccc(C(C)(C)NC(=O)OC(COC(=O)CCCCCCCCC)CN2CC2C)c1 (stereo not shown) [Ex. 22],1.0 fold
3,CCCCOCC(CN1CC1C)OC(=O)NCCCCCCN1C(=O)N(CCCCCCNC(=O)OC(COCCCC)CN2CC2C)C1=O (stereo not shown) [Ex. 13],1.3 fold
4,CC(CN1CC1C)OC(=O)NCCCCCC/N=c1\oc(=O)n(CCCCCCNC(=O)OC(C)CN2CC2C)c(=O)n1CCCCCCNC(=O)OC(C)CN1CC1C (stereo not shown) [Ex. 2],1.1 fold
5,"CCCCOCC(CN1CC1C)OC(=O)NCCCCCCNC(=O)OC(COCCCC)CN1CC1C (stereo not shown) [Comp. Ex. 10, reference compound]",1.5 fold

# Same assay, conditions: GFP induction vs vehicle at 50% cytotoxicity; 3 h exposure with S9, 24 h recovery
row,SMILES,"Genotoxicity test, With S9 rat liver extract, Bscl 2, 50"
1,CCCCCCCCCC(=O)OCC(CN1CC1C)OC(=O)NC1CCC(CC2CCC(NC(=O)OC(COC(=O)CCCCCCCCC)CN3CC3C)CC2)CC1 (stereo not shown) [Ex. 23],1.1 fold
2,CCCCCCCCCC(=O)OCC(CN1CC1C)OC(=O)NC(C)(C)c1cccc(C(C)(C)NC(=O)OC(COC(=O)CCCCCCCCC)CN2CC2C)c1 (stereo not shown) [Ex. 22],1.2 fold
3,"CCCCOCC(CN1CC1C)OC(=O)NCCCCCCNC(=O)OC(COCCCC)CN1CC1C (stereo not shown) [Comp. Ex. 10, reference compound]",1.5 fold

# Same assay, conditions: GFP induction vs vehicle at 50% cytotoxicity; 24 h exposure, no S9
row,SMILES,"Genotoxicity test, Without S9 rat liver extract, Bscl 2, 50"
1,CCCCCCCCCC(=O)OCC(CN1CC1C)OC(=O)NC1CCC(CC2CCC(NC(=O)OC(COC(=O)CCCCCCCCC)CN3CC3C)CC2)CC1 (stereo not shown) [Ex. 23],1.2 fold
2,CCCCCCCCCC(=O)OCC(CN1CC1C)OC(=O)NC(C)(C)c1cccc(C(C)(C)NC(=O)OC(COC(=O)CCCCCCCCC)CN2CC2C)c1 (stereo not shown) [Ex. 22],0.9 fold
3,CC(CN1CC1C)OC(=O)NCCCCCC/N=c1\oc(=O)n(CCCCCCNC(=O)OC(C)CN2CC2C)c(=O)n1CCCCCCNC(=O)OC(C)CN1CC1C (stereo not shown) [Ex. 2],0.9 fold
4,"CCCCOCC(CN1CC1C)OC(=O)NCCCCCCNC(=O)OC(COCCCC)CN1CC1C (stereo not shown) [Comp. Ex. 10, reference compound]",1.6 fold
